# Experiments:
# ArrMsm = target: T1, ArrMsm (Mycolicibacterium smegmatis, UniProt A0QRS5); test: ITC (also nanoDSF; rpTLC ADP-ribosylation); assay type: binding
# T1 construct: gene MSMEG_1221; purified wild-type enzyme, N-terminal His6 tag cleaved with C3 protease
# ArrMab = target: T2, ArrMab (Mycobacteroides abscessus, UniProt B1MH05); test: ITC (also nanoDSF; rpTLC ADP-ribosylation); assay type: binding
# T2 construct: gene MAB_0591; purified wild-type enzyme, N-terminal His6 tag cleaved with C3 protease
# T2 sequence (B1MH05 entry or part of it): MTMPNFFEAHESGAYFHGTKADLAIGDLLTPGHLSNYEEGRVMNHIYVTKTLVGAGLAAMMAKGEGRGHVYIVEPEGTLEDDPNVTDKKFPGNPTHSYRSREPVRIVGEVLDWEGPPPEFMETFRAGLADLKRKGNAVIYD
# T1 sequence (A0QRS5 entry or part of it): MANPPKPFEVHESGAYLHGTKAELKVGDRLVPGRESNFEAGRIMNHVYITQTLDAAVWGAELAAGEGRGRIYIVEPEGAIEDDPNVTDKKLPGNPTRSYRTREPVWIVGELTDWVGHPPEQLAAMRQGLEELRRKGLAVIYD
structure (smiles),measurement,setting,value
"CO[C@H]1/C=C/O[C@@]2(C)Oc3c(C)c(O)c4c(O)c(c(/C=N/N5CCN(C)CC5)c(O)c4c3C2=O)NC(=O)/C(C)=C\C=C\[C@H](C)[C@H](O)[C@@H](C)[C@@H](O)[C@@H](C)[C@H](OC(C)=O)[C@@H]1C [RMP, Rifampicin]",Kd,ArrMsm,0.29 ± 0.02 µM
same,Kd,ArrMab,4.8 ± 0.003 µM
